According to patent US20230062100A1, “SUBSTITUTED AMINOQUINOLONES AS DGKALPHA INHIBITORS FOR IMMUNE ACTIVATION” (Bayer Aktiengesellschaft, priority 2019, published 2023):

The compounds below were run against DGKα (Homo sapiens, UniProt P23743) (assay: Human DGKα kinase activity inhibition assay (ADP-Glo)). Settings: in vitro human DGKα kinase activity inhibition assay.
Format: biochemical
How it was run: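 C-terminally FLAG-tagged full-length human DGKα from baculovirus/insect cells (typically ~0.1 nM) phosphorylated 1,2-dioleoyl-sn-glycerol in octyl-β-D-glucopyranoside micelles in MOPS pH 7.4. ADP formed was quantified by ADP-Glo luminescence after 1 h ATP depletion at 22 °C.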

DGKα, sequence (P23743 with tags, fused parts or gaps): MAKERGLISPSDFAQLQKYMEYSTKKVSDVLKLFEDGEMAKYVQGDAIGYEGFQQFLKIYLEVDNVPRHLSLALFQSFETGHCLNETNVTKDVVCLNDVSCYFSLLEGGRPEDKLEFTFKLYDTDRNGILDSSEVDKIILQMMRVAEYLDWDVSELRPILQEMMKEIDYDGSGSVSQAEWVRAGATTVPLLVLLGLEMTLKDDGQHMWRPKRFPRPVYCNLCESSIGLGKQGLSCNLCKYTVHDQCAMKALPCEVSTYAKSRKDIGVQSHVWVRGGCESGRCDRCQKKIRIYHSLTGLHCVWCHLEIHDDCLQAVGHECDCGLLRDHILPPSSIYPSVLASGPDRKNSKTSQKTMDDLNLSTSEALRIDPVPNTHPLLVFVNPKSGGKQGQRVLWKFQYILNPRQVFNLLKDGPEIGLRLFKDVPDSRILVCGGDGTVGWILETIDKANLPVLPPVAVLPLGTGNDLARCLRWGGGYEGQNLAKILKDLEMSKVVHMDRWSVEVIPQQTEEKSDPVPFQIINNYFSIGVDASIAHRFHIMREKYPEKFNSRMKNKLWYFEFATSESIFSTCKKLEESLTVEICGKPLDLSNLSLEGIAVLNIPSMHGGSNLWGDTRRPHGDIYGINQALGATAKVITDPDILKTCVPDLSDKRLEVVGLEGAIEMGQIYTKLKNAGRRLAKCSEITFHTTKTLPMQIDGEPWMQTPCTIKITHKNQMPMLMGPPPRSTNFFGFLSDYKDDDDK

IC50 [nM]	Compound
3.7	COCCc1ccc2c(N3CCC(Oc4ccc(Cl)cc4)CC3)c(C#N)c(=O)n(C)c2c1 [Example 75, 4-[4-(4-chlorophenoxy)piperidin-1-yl]-7-(2-methoxyethyl)-1-methyl-2-oxo-1,2-dihydroquinoline-3-carbonitrile]
12	Cc1cccc(OC2CCN(c3c(C(N)=O)c(=O)n(C)c4ccc(C)cc34)CC2)c1 [Example 158, 1,6-dimethyl-4-[4-(3-methylphenoxy)piperidin-1-yl]-2-oxo-1,2-dihydroquinoline-3-carboxamide]
4.2	Cc1ccc(OC2CCN(c3c(C#N)c(=O)n(C)c4ccccc34)CC2)cc1 [Example 1, 1-methyl-4-[4-(4-methylphenoxy)piperidin-1-yl]-2-oxo-1,2-dihydroquinoline-3-carbonitrile]
0.17	Cn1c(=O)c(C(N)=O)c(N2CCC(Oc3ccc(OC(F)(F)F)cc3)CC2)c2cc(F)ccc21 [Example 165, 6-fluoro-1-methyl-2-oxo-4-{4-[4-(trifluoromethoxy)phenoxy]piperidin-1-yl}-1,2-dihydroquinoline-3-carboxamide]
3.8	COc1cccc(OC2CCN(c3c(C#N)c(=O)n(C)c4ccc(C)cc34)CC2)c1 [Example 152, 4-[4-(3-methoxyphenoxy)piperidin-1-yl]-1,6-dimethyl-2-oxo-1 2-dihydroquinoline-3-carbonitrile]
57	COc1ccccc1OC1CCN(c2c(C(N)=O)c(=O)n(C)c3ccc(C)cc23)CC1 [Example 162]
30	Cc1ccccc1COC1CCN(c2c(C(N)=O)c(=O)n(C)c3ccccc23)CC1 [Example 124, 1-methyl-4-{4-[(2-methylphenyl)methoxy]piperidin-1-yl}-2-oxo-1,2-dihydroquinoline-3-carboxamide]
1370	Cn1c(=O)c(C#N)c(N2CCC(Oc3ccc(OC(F)(F)F)cc3)CC2)c2cccc(P(C)(C)=O)c21 [Example 135, 8-(dimethylphosphoryl)-1-methyl-2-oxo-4-{4-[4-(trifluoromethoxy)phenoxy]piperidin-1-yl}-1,2-dihydroquinoline-3-carbonitrile]
266	CN1CCN(c2ccc(OC3CCN(c4c(C#N)c(=O)n(C)c5ccccc45)CC3)cc2)C(=O)C1 [Example 24, 1-methyl-4-{4-[4-(4-methyl-2-oxopiperazin-1-yl)phenoxy]piperidin-1-yl}-2-oxo-1,2-dihydroquinoline-3-carbonitrile]
3	Cn1c(=O)c(C#N)c(N2CCC(Sc3ccccc3)CC2)c2cc(C#N)ccc21 [Example 144, 1-methyl-2-oxo-4-[4-(phenylsulfanyl)piperidin-1-yl]-1,2-dihydroquinoline-3,6-dicarbonitrile]
14	Cn1c(=O)c(C#N)c(N2CCC(Oc3ccc(C(F)(F)F)cc3)CC2)c2ccccc21 [Example 13, 1-methyl-2-oxo-4-{4-[4-(trifluoromethyl)phenoxy]piperidin-1-yl}-1,2-dihydroquinoline-3-carbonitrile]
0.9	Cn1c(=O)c(C(N)=O)c(N2CCC(Oc3ccc(OC(F)(F)F)cc3)CC2)c2ccccc21 [Example 48, 1-methyl-2-oxo-4-{4-[4-(trifluoromethoxy)phenoxy]piperidin-1-yl}-1,2-dihydroquinoline-3-carboxamide]
17	Cn1c(=O)c(C#N)c(N2CCC(Oc3cccc(OC(F)(F)F)c3)CC2)c2ccc(C3COC3)cc21 [Example 77, 1-methyl-7-(oxetan-3-yl)-2-oxo-4-{4-[3-(trifluoromethoxy)phenoxy]piperidin-1-yl}-1,2-dihydroquinoline-3-carbonitrile]
339	Cn1c(=O)c(C#N)c(N2CCC(Oc3ccc(S(C)(=O)=O)cc3)CC2)c2ccccc21 [Example 43, 4-{4-[4-(methanesulfonyl)phenoxy]piperidin-1-yl}-1-methyl-2-oxo-1,2-dihydroquinoline-3-carbonitrile]
6.4	Cn1c(=O)c(C#N)c(N2CCC(COc3ccc(Cl)cc3)CC2)c2ccccc21 [Example 116, 4-{4-[(4-chlorophenoxy)methyl]piperidin-1-yl}-1-methyl-2-oxo-1,2-dihydroquinoline-3-carbonitrile]
7.1	Cc1ccc(COC2CCN(c3c(C(N)=O)c(=O)n(C)c4ccccc34)CC2)cc1 [Example 122, 1-methyl-4-{4-[(4-methylphenyl)methoxy]piperidin-1-yl}-2-oxo-1,2-dihydroquinoline-3-carboxamide]
3	COCCOc1ccc2c(N3CCC(Oc4ccc(OC(F)(F)F)cc4)CC3)c(C#N)c(=O)n(C)c2c1 [Example 81, 7-(2-methoxyethoxy)-1-methyl-2-oxo-4-{4-[4-(trifluoromethoxy)phenoxy]piperidin-1-yl}-1,2-dihydroquinoline-3-carbonitrile]
14	Cn1c(=O)c(C(N)=O)c(N2CCC(OCc3ccc(F)cc3)CC2)c2ccccc21 [Example 127, 4-{4-[(4-fluorophenyl)methoxy]piperidin-1-yl}-1-methyl-2-oxo-1,2-dihydroquinoline-3-carboxamide]

IC50 [nM]	Compound
8.4	Cn1c(=O)c(C#N)c(N2CCC(Oc3ccc(F)cc3)CC2)c2ccccc21 [Example 6, 4-[4-(4-fluorophenoxy)piperidin-1-yl]-1-methyl-2-oxo-1,2-dihydroquinoline-3-carbonitrile]
318	Cn1c(=O)c(C#N)c(N2CCC(Oc3cccc4ocnc34)CC2)c2ccccc21 [Example 27, 4-{4-[(1,3-benzoxazol-4-yl)oxy]piperidin-1-yl}-1-methyl-2-oxo-1,2-dihydroquinoline-3-carbonitrile]
14	COc1ccc2c(N3CCC(Oc4ccc(C(F)(F)F)cc4)CC3)c(C#N)c(=O)n(C)c2c1 [Example 66, 7-methoxy-1-methyl-2-oxo-4-{4-[4-(trifluoromethyl)phenoxy]piperidin-1-yl}-1,2-dihydroquinoline-3-carbonitrile]
646	Cn1c(=O)c(C#N)c(N2CCC(Oc3ccc(C(N)=O)cc3)CC2)c2ccccc21 [Example 35, 4-{[1-(3-cyano-1-methyl-2-oxo-1,2-dihydroquinolin-4-yl)piperidin-4-yl]oxy}benzamide]
7.2	Cc1ccc(COC2CCN(c3c(C#N)c(=O)n(C)c4ccccc34)CC2)cc1 [Example 107, 1-methyl-4-{4-[(4-methylphenyl)methoxy]piperidin-1-yl}-2-oxo-1,2-dihydroquinoline-3-carbonitrile]
12	Cn1c(=O)c(C#N)c(N2CCC(OCc3cccc(F)c3)CC2)c2ccccc21 [Example 113, 4-{4-[(3-fluorophenyl)methoxy]piperidin-1-yl}-1-methyl-2-oxo-1,2-dihydroquinoline-3-carbonitrile]
28	COc1ccccc1CC1CCN(c2c(C#N)c(=O)n(C)c3ccccc23)CC1 [Example 94, 4-{4-[(2-methoxyphenyl)methyl]piperidin-1-yl}-1-methyl-2-oxo-1,2-dihydroquinoline-3-carbonitrile]
10	COc1cc(C)ccc1OC1CCN(c2c(C#N)c(=O)n(C)c3ccc(C)cc23)CC1 [Example 153, 4-[4-(2-methoxy-4-methylphenoxy)piperidin-1-yl]-1,6-dimethyl-2-oxo-1,2-dihydroquinoline-3-carbonitrile]
11	COc1ccccc1OC1CCN(c2c(C#N)c(=O)n(C)c3ccccc23)CC1 [Example 11, 4-[4-(2-methoxyphenoxy)piperidin-1-yl]-1-methyl-2-oxo-1,2-dihydroquinoline-3-carbonitrile]
536	Cn1c(=O)c(C#N)c(N2CCC(Oc3ccc(OC(F)(F)F)cc3)CC2)c2cccc(C#N)c21 [Example 132, 1-methyl-2-oxo-4-{4-[4-(trifluoromethoxy)phenoxy]piperidin-1-yl}-1,2-dihydroquinoline-3,8-dicarbonitrile]
37	Cn1c(=O)c(C(N)=O)c(N2CCC(Oc3ccc(OC(F)(F)F)cc3)CC2)c2cccc(Cl)c21 [Example 164, 8-chloro-1-methyl-2-oxo-4-{4-[4-(trifluoromethoxy)phenoxy]piperidin-1-yl}-1,2-dihydroquinoline-3-carboxamide]
6.3	COc1cccc(OC2CCN(c3c(C#N)c(=O)n(C)c4ccccc34)CC2)c1 [Example 4, 4-[4-(3-methoxyphenoxy)piperidin-1-yl]-1-methyl-2-oxo-1,2-dihydroquinoline-3-carbonitrile]
40	Cn1c(=O)c(C#N)c(N2CCC(Oc3ccc(C(F)(F)F)cc3)CC2)c2ccc(C3CC3)cc21 [Example 87, 7-cyclopropyl-1-methyl-2-oxo-4-{4-[4-(trifluoromethyl)phenoxy]piperidin-1-yl}-1,2-dihydroquinoline-3-carbonitrile]
45	COCCOc1ccc(OC2CCN(c3c(C#N)c(=O)n(C)c4ccccc34)CC2)cc1 [Example 44, 4-{4-[4-(2-methoxyethoxy)phenoxy]piperidin-1-yl}-1-methyl-2-oxo-1,2-dihydroquinoline-3-carbonitrile]
8.3	Cn1c(=O)c(C#N)c(N2CCC(OCc3ccccc3)CC2)c2ccccc21 [Example 106, 4-[4-(benzyloxy)piperidin-1-yl]-1-methyl-2-oxo-1,2-dihydroquinoline-3-carbonitrile]
1130	Cn1c(=O)c(C#N)c(N2CCC(Oc3cccc(OC(F)(F)F)c3)CC2)c2ccc(P(C)(C)=O)cc21 [Example 78, 7-(dimethylphosphoryl)-1-methyl-2-oxo-4-{4-[3-(trifluoromethoxy)phenoxy]piperidin-1-yl}-1,2-dihydroquinoline-3-carbonitrile]
4.4	Cn1c(=O)c(C#N)c(N2CCC(Sc3ccccc3)CC2)c2ccc(Br)cc21 [Example 55, 7-bromo-1-methyl-2-oxo-4-[4-(phenylsulfanyl)piperidin-1-yl]-1,2-dihydroquinoline-3-carbonitrile]
29	Cn1c(=O)c(C(N)=O)c(N2CCC(OCc3cccc(F)c3)CC2)c2ccccc21 [Example 128, 4-{4-[(3-fluorophenyl)methoxy]piperidin-1-yl}-1-methyl-2-oxo-1,2-dihydroquinoline-3-carboxamide]
